# Test results from ChEMBL document CHEMBL1687777, “Membrane efflux and influx modulate both multidrug resistance and virulence of Klebsiella pneumoniae in a Caenorhabditis elegans model” (2010).
# How the values were obtained:
# Klebsiella pneumoniae [1] = experiment: Antibacterial activity against porin, OmpA positive Klebsiella pneumoniae ATCC 138821 by disk agar diffusion method; assay type: functional
# Klebsiella pneumoniae [2] = experiment: Antibacterial activity against porin, OmpA positive Klebsiella pneumoniae KPBj1 expressing efflux system by disk agar diffusion method; assay type: functional
# Klebsiella pneumoniae [3] = experiment: Antibacterial activity against porin, OmpA positive Klebsiella pneumoniae KPBj1 revertant by disk agar diffusion method; assay type: functional
# Klebsiella pneumoniae [4] = experiment: Antibacterial activity against porin deficient OmpA positive Klebsiella pneumoniae KPBj1 expressing efflux system by disk agar diffusion method; assay type: functional
# Klebsiella pneumoniae [5] = experiment: Antibacterial activity against porin deficient OmpA positive Klebsiella pneumoniae KPBj1 revertant by disk agar diffusion method; assay type: functional
# Klebsiella pneumoniae [6] = experiment: Antibacterial activity against porin, OmpA positive extended-spectrum beta-lactamase producing Klebsiella pneumoniae KPBj1 by disk agar diffusion method; assay type: functional
# Klebsiella pneumoniae [7] = experiment: Antibacterial activity against porin, OmpA positive extended-spectrum beta-lactamase producing Klebsiella pneumoniae KPBj1 revertant by disk agar diffusion method; assay type: functional
# Klebsiella pneumoniae [8] = experiment: Antibacterial activity against porin deficient OmpA positive extended-spectrum beta-lactamase producing Klebsiella pneumoniae KPBj1 revertant by disk agar diffusion method; assay type: functional
# Klebsiella pneumoniae [9] = experiment: Antibacterial activity against porin, OmpA positive Klebsiella pneumoniae KPBj3 expressing efflux system by disk agar diffusion method; assay type: functional
# Klebsiella pneumoniae [10] = experiment: Antibacterial activity against porin, OmpA positive Klebsiella pneumoniae KPBj3 revertant by disk agar diffusion method; assay type: functional
# Klebsiella pneumoniae [11] = experiment: Antibacterial activity against porin deficient OmpA positive Klebsiella pneumoniae KPBj3 expressing efflux system by disk agar diffusion method; assay type: functional
# Klebsiella pneumoniae [12] = experiment: Antibacterial activity against porin deficient OmpA positive Klebsiella pneumoniae KPBj3 revertant by disk agar diffusion method; assay type: functional
# Klebsiella pneumoniae [13] = experiment: Antibacterial activity against porin, OmpA positive Klebsiella pneumoniae KPBj5 expressing efflux system by disk agar diffusion method; assay type: functional
# Klebsiella pneumoniae [14] = experiment: Antibacterial activity against porin, OmpA positive Klebsiella pneumoniae KPBj5 revertant by disk agar diffusion method; assay type: functional
# Klebsiella pneumoniae [15] = experiment: Antibacterial activity against porin deficient OmpA positive Klebsiella pneumoniae KPBj5 expressing efflux system by disk agar diffusion method; assay type: functional
# Klebsiella pneumoniae [16] = experiment: Antibacterial activity against porin deficient OmpA positive Klebsiella pneumoniae KPBj5 revertant by disk agar diffusion method; assay type: functional
# Klebsiella pneumoniae [17] = experiment: microbe, parasite or virus in culture; details: KPBj1
# Description: Antibacterial activity against porin deficient OmpA positive extended-spectrum beta-lactamase producing Klebsiella pneumoniae KPBj1 expressing efflux system by disk agar diffusion method
SMILES,MIC (Klebsiella pneumoniae [1]),MIC (Klebsiella pneumoniae [2]),MIC (Klebsiella pneumoniae [3]),MIC (Klebsiella pneumoniae [4]),MIC (Klebsiella pneumoniae [5]),MIC (Klebsiella pneumoniae [6]),MIC (Klebsiella pneumoniae [7]),MIC (Klebsiella pneumoniae [8]),MIC (Klebsiella pneumoniae [9]),MIC (Klebsiella pneumoniae [10]),MIC (Klebsiella pneumoniae [11]),MIC (Klebsiella pneumoniae [12]),MIC (Klebsiella pneumoniae [13]),MIC (Klebsiella pneumoniae [14]),MIC (Klebsiella pneumoniae [15]),MIC (Klebsiella pneumoniae [16]),MIC (Klebsiella pneumoniae [17])
C[C@@H](O)[C@H]1C(=O)N2C(C(=O)O)=C(S[C@@H]3CN[C@H](C(=O)Nc4cccc(C(=O)O)c4)C3)[C@H](C)[C@H]12,0.007 µg/mL,0.007 µg/mL,0.007 µg/mL,0.5 µg/mL,0.5 µg/mL,0.125 µg/mL,0.03 µg/mL,2 µg/mL,0.007 µg/mL,0.007 µg/mL,0.25 µg/mL,0.25 µg/mL,0.015 µg/mL,0.007 µg/mL,0.25 µg/mL,0.25 µg/mL,4 µg/mL
CO/N=C(\C(=O)N[C@@H]1C(=O)N2C(C(=O)O)=C(COC(C)=O)CS[C@H]12)c1csc(N)n1 [CEFOTAXIME],0.06 µg/mL,0.125 µg/mL,0.06 µg/mL,0.25 µg/mL,0.25 µg/mL,128 µg/mL,128 µg/mL,256 µg/mL,0.06 µg/mL,0.06 µg/mL,0.25 µg/mL,0.25 µg/mL,0.125 µg/mL,0.06 µg/mL,0.25 µg/mL,0.125 µg/mL,256 µg/mL
CO[C@@]1(NC(=O)Cc2cccs2)C(=O)N2C(C(=O)O)=C(COC(N)=O)CS[C@@H]21 [CEFOXITIN],2 µg/mL,8 µg/mL,2 µg/mL,32 µg/mL,32 µg/mL,8 µg/mL,2 µg/mL,32 µg/mL,4 µg/mL,2 µg/mL,32 µg/mL,32 µg/mL,8 µg/mL,2 µg/mL,32 µg/mL,16 µg/mL,32 µg/mL
CC(C)(O/N=C(\C(=O)N[C@@H]1C(=O)N2C(C(=O)[O-])=C(C[n+]3ccccc3)CS[C@H]12)c1csc(N)n1)C(=O)O [CEFTAZIDIME],0.125 µg/mL,0.25 µg/mL,0.125 µg/mL,0.125 µg/mL,0.125 µg/mL,32 µg/mL,16 µg/mL,32 µg/mL,0.25 µg/mL,0.125 µg/mL,0.25 µg/mL,0.25 µg/mL,0.25 µg/mL,0.125 µg/mL,0.25 µg/mL,0.125 µg/mL,32 µg/mL
O=C(N[C@H](CO)[C@H](O)c1ccc([N+](=O)[O-])cc1)C(Cl)Cl [CHLORAMPHENICOL],2 µg/mL,128 µg/mL,2 µg/mL,128 µg/mL,4 µg/mL,128 µg/mL,2 µg/mL,4 µg/mL,128 µg/mL,4 µg/mL,128 µg/mL,4 µg/mL,8 µg/mL,2 µg/mL,8 µg/mL,2 µg/mL,128 µg/mL
C[C@H]1COc2c(N3CCN(C)CC3)c(F)cc3c(=O)c(C(=O)O)cn1c23.C[C@H]1COc2c(N3CCN(C)CC3)c(F)cc3c(=O)c(C(=O)O)cn1c23.O [LEVOFLOXACIN],0.03 µg/mL,–,0.03 µg/mL,–,0.06 µg/mL,–,0.03 µg/mL,0.06 µg/mL,–,0.03 µg/mL,–,0.015 µg/mL,–,0.06 µg/mL,–,0.06 µg/mL,–
CCn1cc(C(=O)O)c(=O)c2ccc(C)nc21 [NALIDIXIC ACID],4 µg/mL,32 µg/mL,2 µg/mL,32 µg/mL,2 µg/mL,32 µg/mL,4 µg/mL,4 µg/mL,32 µg/mL,2 µg/mL,32 µg/mL,2 µg/mL,8 µg/mL,2 µg/mL,8 µg/mL,2 µg/mL,32 µg/mL
